Measured values from article PMC11876671, “Investigating blood–brain barrier penetration and neurotoxicity of natural products for central nervous system drug development” (Scientific Reports, 2025).
Read-outs that look alike come from different tables or passages of the source.

How the values were obtained:
[1] = test system: GFP-labeled iPSC-derived human cortical glutamatergic neurons; assay: cells; type: cell-based; details: Homo sapiens, Neuron
in vitro = details: PAMPA, PAMPA-BBB Pe
[2] = test system: GFP-labeled iPSC-derived human cortical glutamatergic neurons; assay: cells; details: Neuron, 48 h
[3] = Table S1, total neurite length, 48 hr, head prints no unit, µM per Table 1 and Fig. 5, read-out: TNL AC50 (48 hr)
[4] = Table S1, 60 min, room temperature, 0.05 mM
[5] = read-out: Viability AC50 (48hr)
[6] = Table S2: compounds exhibiting moderate to high PAMPA-BBB permeability
[7] = total neurite length, 48 h treatment, read-out: TNL AC50 (48 h)
[8] = read-out: Viability AC50 (48 h)
[9] = Table 1, 60 min, room temperature, 0.05 mM

Compound | AC50 [1, 3] [µM] | Papp (in vitro; [4]) [×10⁻⁶ cm/s] | AC50 [2, 5] [µM] | PAMPA-BBB Pe [6] | AC50 [1, 7] [µM] | AC50 [2, 8] [µM] | PAMPA-BBB Pe [9] | PAMPA-BBB Pe [4] | Papp (in vitro) [×10⁻⁶ cm/s] | PAMPA-BBB Pe (PAMPA) | Papp (in vitro; [6]) [×10⁻⁶ cm/s] | AC50 ([1]; 48 h, read-out: TNL AC50 (48 hr)) [µM]
CN[C@@H]1C[C@H]2O[C@@](C)([C@@H]1OC)n1c3ccccc3c3c4c(c5c6ccccc6n2c5c31)C(=O)N[C@H]4O [7-hydroxystaurosporine (UCN-01), 7-hydroxystaurosporine] | 5.74 | 158 | 7.92 | 158 10^-6 cm/sec |  |  |  |  |  |  |  | 
CN1Cc2c(ccc3c2OCO3)[C@@H]2[C@H]1c1cc3c(cc1C[C@@H]2O)OCO3 [Chelidonine] | 7.54 | 75 | 5.8 | 75 10^-6 cm/sec |  |  |  |  |  |  |  | 
Cc1c2ccncc2c(C)c2c1[nH]c1ccccc12 [Ellipticine] |  |  | 19.6 | >1000 10^-6 cm/sec | 2.64 | 19.6 | > 1000 10 × 10^− 6 cm/sec | >1000 10^-6 cm/sec |  |  |  | 
O=c1cc(-c2ccc(O)c(O)c2)oc2ccccc12 [3',4'-DIHYDROXYFLAVONE] | 15.7 | 93.9 | 19.8 | 94 10^-6 cm/sec |  |  |  |  |  |  |  | 
Cc1cc2c(C(C)C)c(O)c(O)c(C=O)c2c(O)c1-c1c(C)cc2c(C(C)C)c(O)c(O)c(C=O)c2c1O [Gossypol] | 7.6 | 393 | 6.91 | 393 10^-6 cm/sec |  |  |  |  |  |  |  | 
O=C(/C=C/c1ccc(O)c(O)c1)OCCc1ccccc1 [Caffeic acid phenethyl ester] | 22.2 |  | 24.8 |  |  |  |  | >1000 10^-6 cm/sec |  |  |  | 
C=CC[C@@H]1/C=C(\C)C[C@H](C)C[C@H](OC)[C@H]2O[C@@](O)(C(=O)C(=O)N3CCCC[C@H]3C(=O)O[C@H](/C(C)=C/[C@@H]3CC[C@@H](O)[C@H](OC)C3)[C@H](C)[C@@H](O)CC1=O)[C@H](C)C[C@@H]2OC [Tacrolimus, reference compound] | 2.65 | 154 | 4.19 | 154 10^-6 cm/sec | 2.65 | 4.19 | 154.13 10 × 10^− 6 cm/sec |  |  |  |  | 
O=c1c(O)c(-c2ccccc2)oc2ccccc12 [3-Hydroxyflavone] |  | 181 |  |  | 2.97 | 1.83 | 181.17 10 × 10^− 6 cm/sec |  |  |  |  | 
COc1ccc(-c2coc3c(O)c(O)c(OC)cc3c2=O)cc1 [NCGC00264029-02] | 30.1 | 40.1 | 25.6 | 40 10^-6 cm/sec |  |  |  |  |  |  |  | 
Cc1nccc2c1[nH]c1ccccc12 [Harmane] | 3.21 |  |  |  | 3.21 | 12.2 |  |  | 59.6 | 59.65 10 × 10^− 6 cm/sec |  | 
CC(C)c1cc2c(c(O)c1O)[C@@]13CCCC(C)(C)[C@@H]1C[C@@H]2OC3=O [Carnosol] | 17.8 | 32.8 | 26.4 | 33 10^-6 cm/sec |  |  |  |  |  |  |  | 
COc1cc(O)c2c(c1)C1OC1C[C@H](O)[C@H](O)C(=O)C=CC[C@H](C)OC2=O (stereo partly shown) [NCGC00183677-03] | 35.9 | 69.3 | 28.2 | 69 10^-6 cm/sec |  |  |  |  |  |  |  | 
COc1ccc(/C=C/C(=O)c2ccc(O)cc2O)cc1 [2',4'-DIHYDROXY-4-METHOXYCHALCONE] | 37.2 | 357 | 21.5 | 357 10^-6 cm/sec |  |  |  |  |  |  |  | 
CCC(=O)CCCCC[C@@H]1NC(=O)[C@H]2CCCCN2C(=O)[C@H]([C@@H](C)CC)NC(=O)[C@H](Cc2cn(OC)c3ccccc23)NC1=O [Apicidin] | 4.84 | 55.8 | 2.17 | 56 10^-6 cm/sec | 4.84 | 2.17 | 55.75 10 × 10^− 6 cm/sec |  |  |  |  | 
COC(=O)[C@H]1[C@H]2C[C@@H]3c4[nH]c5ccccc5c4CCN3C[C@H]2C[C@@H](OC(=O)c2cc(OC)c(OC)c(OC)c2)[C@@H]1OC [Deserpidine, reference compound] | 11.3 | 42.1 | 16.6 | 42 10^-6 cm/sec |  |  |  |  |  |  |  | 
COc1cc2c(OC(C)=O)c3c(c(-c4ccc5c(c4)OCO5)c2cc1OC)C(=O)OC3 [NCGC00161918-01] | 3.1 | 349 | 9.92 | 349 10^-6 cm/sec |  |  |  |  |  |  |  | 
CC1=C(O)C(=O)C=C2C1=CC=C1[C@@]2(C)CC[C@@]2(C)[C@@H]3C[C@](C)(C(=O)O)CC[C@]3(C)CC[C@]12C [Celastrol] | 4.92 | 143 | 5.47 |  | 4.92 | 5.47 | 142.58 10 × 10^− 6 cm/sec |  |  |  | 143 | 
COc1cc(C)ccc1O [Creosol] |  |  | 10.5 |  |  |  |  |  | 115 | 115 10^-6 cm/sec |  | 15.3
CCCC[C@@H](C)/C=C(C)/C=C(\C)C(=O)NC1=C[C@@](O)(/C=C/C=C/C=C/C(=O)NC2=C(O)CCC2=O)[C@@H]2O[C@@H]2C1=O [ManumycinA] | 6.43 | 64 | 8.33 |  |  |  |  |  |  |  |  | 
C=CC(C1=CC(=O)C(OC)=CC1=O)c1ccc(OC)cc1 (stereo not shown) [NCGC00095719-04] | 1.26 | 143 | 1.33 |  |  |  |  |  |  |  | 143 | 
COc1ccc2c(c[n+](C)c3c4cc5c(cc4ccc23)OCO5)c1OC [Chelerythrine chloride] | 2.79 | 94.7 | 2.19 |  | 2.79 | 2.19 | 94.67 10 × 10^− 6 cm/sec |  |  |  |  | 
COc1ccc(C(=O)/C=C/c2ccccc2)cc1 [4'-METHOXYCHALCONE] | 23.6 |  | 23.6 | >1000 10^-6 cm/sec |  |  |  | >1000 10^-6 cm/sec |  |  |  | 
COC(=O)[C@H]1[C@H]2C[C@@H]3c4[nH]c5cc(OC)ccc5c4CCN3C[C@H]2C[C@@H](OC(=O)c2cc(OC)c(OC)c(OC)c2)[C@@H]1OC [Reserpine, reference compound] | 31.8 |  | 35.2 |  |  |  |  |  | 90.1 | 90 10^-6 cm/sec |  | 
C=C(C)[C@@H]1CCC2=CC(=O)C[C@@H](C)[C@]2(C)C1 [Nootkatone] | 13.1 | 63.3 | 3.98 | 63 10^-6 cm/sec |  |  |  |  |  |  |  | 
COc1ccc(/C=C/C(=O)c2cc(O)ccc2O)cc1 [NCGC00096016-04] | 12.9 | 300 | 19.8 | 300 10^-6 cm/sec |  |  |  |  |  |  |  | 
C=C(C)[C@@]12OC3(c4ccccc4)O[C@@H]1[C@@H]1[C@@H]4O[C@]4(CO)[C@@H](O)[C@]4(O)C(=O)C(C)=C[C@H]4[C@@]1(O3)[C@H](C)[C@H]2OC(=O)/C=C/C=C/c1ccccc1 [Mezerein] | 16.3 | 15.6 | 9.41 |  |  |  |  |  |  |  | 16 | 
O=c1cc(N2CCOCC2)oc2c(-c3cccc4c3sc3ccccc34)cccc12 [NU-7441, 8-(4-DIBENZOTHIENYL)-2-(4-MORPHOLINYL)-4H-1-BENZOPYRAN-4-ONE, reference compound] | 2.85 | 102 | 7.6 |  | 2.85 | 7.6 | 101.9 10 × 10^− 6 cm/sec |  |  |  |  | 
Cc1c(O)c(O)cc2c1CC=C1[C@@]2(C)CC[C@@]2(C)[C@H]3C[C@](C)(C(=O)O)CC[C@]3(C)CC[C@]12C [NCGC00264082-02] | 2.37 | 288 | 4.3 | 288 10^-6 cm/sec |  |  |  |  |  |  |  | 
O=c1cc(-c2ccc(O)cc2)oc2cc(O)cc(O)c12 [Apigenin] | 35.9 | 36.2 | 37.2 | 36 10^-6 cm/sec |  |  |  |  |  |  |  | 
CC1=C[C@H](O)CC(C)(C)[C@H]1/C=C/C(C)=C/C=C/C(C)=C/C=C/C=C(C)/C=C/C=C(C)/C=C/C1=C(C)C[C@@H](O)CC1(C)C [Lutein] | 24.2 | 28 | 21.1 |  |  |  |  |  |  |  |  | 
